Assay results from ChEMBL document CHEMBL5344425, “Discovery of 5-(Pyrimidin-2-ylamino)-1H-indole-2-carboxamide Derivatives as Nur77 Modulators with Selective and Potent Activity Against Triple-Negative Breast Cancer” (J Med Chem, 2023).
pIC50, pKd: −log10 of the molar value. Active and inactive are the calls of the source. The rule behind the calls is not given here.

Tests used:
T47D = assay: Antiproliferative activity against human T47D cells assessed as inhibition of cell growth measured after 24 hrs by MTT assay; assay type: functional, cell-based
MDA-MB-231 = assay: Antiproliferative activity against human MDA-MB-231 cells assessed as inhibition of cell growth measured after 24 hrs by MTT assay; assay type: functional, cell-based; conditions: MDA-MB-231, 24 h
[1] = Cytotoxicity against human MCF-10A cells assessed as inhibition of cell growth measured after 24 hrs by MTT assay; assay type: toxicity, cell-based
[2] = molecular target: T1, Nuclear receptor subfamily 4immunitygroup A member 1 (Homo sapiens, UniProt P22736); assay: Binding affinity to His-tagged Nur77 ligand binding domain (unknown origin) at 10 uM by surface plasmon resonance assay; conditions: filed as modulator
T1 sequence (P22736 whole entry, the tested form may be a part): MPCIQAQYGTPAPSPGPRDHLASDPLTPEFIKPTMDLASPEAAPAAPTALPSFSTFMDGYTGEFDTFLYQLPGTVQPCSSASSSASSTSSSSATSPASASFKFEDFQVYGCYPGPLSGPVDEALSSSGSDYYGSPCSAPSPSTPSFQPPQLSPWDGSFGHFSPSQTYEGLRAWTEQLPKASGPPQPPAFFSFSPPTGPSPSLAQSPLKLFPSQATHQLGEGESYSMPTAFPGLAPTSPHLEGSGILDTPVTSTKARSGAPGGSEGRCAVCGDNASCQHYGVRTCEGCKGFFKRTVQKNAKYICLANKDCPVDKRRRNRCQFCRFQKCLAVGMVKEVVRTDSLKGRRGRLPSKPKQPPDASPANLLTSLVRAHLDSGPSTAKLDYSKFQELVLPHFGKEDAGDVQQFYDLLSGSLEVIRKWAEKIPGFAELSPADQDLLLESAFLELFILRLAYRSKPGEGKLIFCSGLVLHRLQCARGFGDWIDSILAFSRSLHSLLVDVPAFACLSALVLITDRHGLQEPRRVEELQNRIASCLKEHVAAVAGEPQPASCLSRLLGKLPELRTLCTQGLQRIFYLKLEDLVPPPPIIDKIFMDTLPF

[3] = molecular target: T1, Nuclear receptor subfamily 4immunitygroup A member 1; assay: Binding affinity to His-tagged Nur77 ligand binding domain (unknown origin) by surface plasmon resonance assay
[4] = molecular target: T1, Nuclear receptor subfamily 4immunitygroup A member 1; assay: Antagonist activity at Nur77 ligand binding domain (unknown origin) transfected in HEK293T cells cotransfected with pG5-Luc assessed as inhibition of receptor transcriptional activity at 2 uM measured after 12 hrs by luciferase reporter gene assay; assay type: cell-based; conditions: filed as antagonist
[5] = Toxicity in Zebra fish AB embryo assessed as mortality rate at 1.25 to 5 uM measured after 24 hrs; parameters: species or system Danio rerio; conditions: zebrafish, dose 1.25-5 µM
[6] = Toxicity in Zebra fish AB embryo assessed as mortality rate at 1.25 uM measured after 24 to 72 hrs; parameters: species or system Danio rerio; conditions: AB, zebrafish, time 24-72 hrs

SMILES	pIC50 (T47D)	pIC50 (MDA-MB-231)	IC50 at 24 h [1] [µM]	Activity [2]	pKd [3]	inhibition [4]	mortality at 24 h, up to 5 µM [5] [%]	mortality at 1.25 µM [6] [%]
CN(C)CCCNC(=O)c1cc2ccc(Nc3nccc(-c4cccnc4)n3)cc2[nH]1	< 4.70	5.51	> 20	Active	6.45	–	–	–
CCCCN(CCCC)CCCNC(=O)c1cc2cc(Nc3nccc(-c4cccnc4)n3)ccc2[nH]1	4.97	5.37	6.48	Active	–	–	–	–
CCN(CC)CCCNC(=O)c1cc2cc(Nc3nccc(-c4cccnc4)n3)ccc2[nH]1	< 4.70	4.98	> 20	–	–	–	–	–
CCN(CC)CCCNC(=O)c1cc2cc(Nc3nccc(-c4cccc(OCc5ccccc5)c4)n3)ccc2[nH]1	< 4.70	< 4.70	> 20	–	–	–	–	–
CC(C)N(CCNC(=O)c1cc2cc(Nc3nccc(-c4ccccc4)n3)ccc2[nH]1)C(C)C	5.03	4.95	4.05	–	–	–	–	–
CN(C)CCNC(=O)c1cc2cc(Nc3nccc(-c4ccc(C(F)(F)F)cc4)n3)ccc2[nH]1	5.17	4.99	2.12	–	–	–	–	–
CCN(CC)CCCNC(=O)c1cc2cc(Nc3nccc(-c4ccccc4)n3)ccc2[nH]1	5.49	5.14	13	Active	–	–	–	–
CCN(CC)CCCNC(=O)c1cc2cc(Nc3nccc(-c4ccc(OC)c(OC)c4)n3)ccc2[nH]1	4.94	5.22	3.57	Active	–	–	–	–
CCN(CC)CCCNC(=O)c1cc2cc(Nc3nccc(-c4cc(OCc5ccccc5)cc(OCc5ccccc5)c4)n3)ccc2[nH]1	5.72	< 4.70	2.89	–	–	–	–	–
Cc1nc(-c2ccnc(Nc3ccc4[nH]c(C(=O)NCCN(C)C)cc4c3)n2)c(C)s1	5.44	< 4.70	15	Active	–	–	–	–
O=C(N/N=C/c1ccncc1)c1ccc(Nc2ccnc3ccccc23)cc1	–	–	–	–	5.93	–	–	–
CN(C)CCCNC(=O)c1cc2cc(Nc3nccc(-c4cccs4)n3)ccc2[nH]1	5.37	< 4.70	> 20	Active	–	–	–	–
Cc1nc(-c2ccnc(Nc3ccc4[nH]c(C(=O)NCCN5CCCC5)cc4c3)n2)c(C)s1	< 4.70	< 4.70	> 20	–	–	–	–	–
CCN(CC)CCCNC(=O)c1cc2cc(Nc3nccc(-c4ccccc4OC)n3)ccc2[nH]1	4.89	5.08	> 20	Active	–	–	–	–
CN(C)CCCNC(=O)c1cc2cc(Nc3nccc(-c4cc(OCc5ccccc5)cc(OCc5ccccc5)c4)n3)ccc2[nH]1	4.94	5.77	3.9	–	–	–	–	–
CC1=C(O)C(=O)C=C2C1=CC=C1[C@@]2(C)CC[C@@]2(C)[C@@H]3C[C@](C)(C(=O)O)CC[C@]3(C)CC[C@]12C [CELASTROL]	< 4.70	–	5.45	Active	–	Active	100	100
CN(C)CCNC(=O)c1cc2cc(Nc3nccc(-c4ccccc4)n3)ccc2[nH]1	< 4.70	5.09	> 20	Active	–	–	–	–
O=C(NCCN1CCCCC1)c1cc2cc(Nc3nccc(-c4cccc(OCc5ccccc5)c4)n3)ccc2[nH]1	< 4.70	5.27	1.76	–	–	–	–	–

SMILES	pIC50 (T47D)	pIC50 (MDA-MB-231)	IC50 at 24 h [1] [µM]	Activity [2]	pKd [3]	inhibition [4]	mortality at 24 h, up to 5 µM [5] [%]	mortality at 1.25 µM [6] [%]
CN(C)CCNC(=O)c1cc2cc(Nc3nccc(-c4cccc(OCc5ccccc5)c4)n3)ccc2[nH]1	< 4.70	< 4.70	> 20	–	–	–	–	–
CCCCCNC(=O)c1cc2cc(Nc3nccc(-c4ccccc4)n3)ccc2[nH]1	< 4.70	4.76	> 20	Active	–	–	–	–
COc1ccc(-c2ccnc(Nc3ccc4[nH]c(C(=O)NCCCN(C)C)cc4c3)n2)cc1OC	5.22	5.59	15	Active	–	–	–	–
CCN(CC)CCCNC(=O)c1cc2cc(Nc3nccc(-c4nc(C)sc4C)n3)ccc2[nH]1	< 4.70	< 4.70	19.2	Active	–	–	–	–
CN(C)CCCNC(=O)c1cc2cc(Nc3nccc(-c4ccc(Cl)s4)n3)ccc2[nH]1	5.37	5.21	7.43	Active	–	–	–	–
CCCCN(CCCC)CCCNC(=O)c1cc2cc(Nc3nccc(-c4ccccc4)n3)ccc2[nH]1	4.82	5.11	4.96	–	–	–	–	–
Cc1nc(-c2ccnc(Nc3ccc4[nH]c(C(=O)NCCCN(C)C)cc4c3)n2)c(C)s1	4.80	< 4.70	15.9	–	–	–	–	–
COc1ccc2[nH]cc(CCNC(=O)c3cc4cc(Nc5nccc(-c6cccnc6)n5)ccc4[nH]3)c2c1	5.08	4.74	> 20	–	–	–	–	–
COc1ccc(-c2ccnc(Nc3ccc4[nH]c(C(=O)NCCN5CCCC5)cc4c3)n2)cc1OC	5.49	5.40	9.71	–	–	–	–	–
CN(C)CCCNC(=O)c1cc2cc(Nc3nccc(-c4ccccc4)n3)ccc2[nH]1	5.10	5.05	> 20	Active	–	–	–	–
CCN(CC)CCCNC(=O)c1cc2cc(Nc3nccc(-c4ccc(C(F)(F)F)cc4)n3)ccc2[nH]1	5.21	5.19	6.57	–	–	–	–	–
COc1ccccc1-c1ccnc(Nc2ccc3[nH]c(C(=O)NCCCN(C)C)cc3c2)n1	< 4.70	5.32	> 20	–	–	–	–	–
CN(C)CCNC(=O)c1cc2cc(Nc3nccc(-c4cccnc4)n3)ccc2[nH]1	< 4.70	5.51	> 20	–	–	–	–	–
COc1ccc(-c2ccnc(Nc3ccc4[nH]c(C(=O)NCCN5CCN(C)CC5)cc4c3)n2)cc1OC	4.84	4.76	> 20	–	–	–	–	–
CCN(CC)CCCNC(=O)c1cc2cc(Nc3nccc(-c4cccs4)n3)ccc2[nH]1	5.08	5.49	14.3	Active	–	–	–	–
CCN(CC)CCCNC(=O)c1cc2cc(Nc3nccc(-c4ccc(Cl)s4)n3)ccc2[nH]1	5.64	5.17	5.54	Active	–	–	–	–
CN(C)CCCNC(=O)c1cc2cc(Nc3nccc(-c4ccc(C(F)(F)F)cc4)n3)ccc2[nH]1	5.03	6.04	2.09	–	–	–	–	–
Cc1nc(-c2ccnc(Nc3ccc4[nH]c(C(=O)NCCN5CCOCC5)cc4c3)n2)c(C)s1	< 4.70	< 4.70	15.4	–	–	–	–	–
